Columns and labels:
brown adipose tissue = experiment: [^18F]FDG uptake by PET imaging (separate study); assay type: in vivo, mice
Source text: Finally, glucose uptake was elevated in brown adipose tissue in Cotadutide treated mice, which was confirmed in a separate study of [^18F]FDG uptake by PET imaging.

[1] = system: subjects with T2DM and renal impairment; experiment: Phase 2a: urine albumin:creatinine ratio (UACR); assay type: in vivo, human; details: for UACR Relative Change from Baseline to End of Dosing (vs. Placebo): subjects with mean UACR > 3 mg/mmol at baseline (micro- or macroalbuminuria), 1-exponential of fold change
Protocol: Cotadutide was titrated from 50 μg up to 300 μg and administered once daily by subcutaneous (SC) injection over 32 days.
Cotadutide was administered at 50 μg once daily for 4 days, followed by 100 μg daily for 7 days, 200 μg daily for 7 days, and 300 μg daily for 14 days (n=20). Placebo was administered one daily for 32 days (n=20). Cotadutide and placebo were administered in the morning. Dosing commenced following predose baseline vital signs, blood tests (including HbA1c), an electrocardiogram (ECG), body weight measurement, and bioimpedance spectroscopy (BIS). Subjects then returned for daily dosing or remained overnight locally until Day 5, and thereafter, had visits at weekly intervals until a maintenance dose of 300 μg was established. Thus, Cotadutide or placebo was administered at the study site by study personal for the first four doses and on site on Days 5, 12, 19, and 32. At all other times, subjects preformed dosing at home.
Mean urine albumin:creatinine ratio (UACR) was lower in the Cotadutide dose group compared to placebo from Day 19 until the end of dosing, and for 8 days into the follow-up period.

[2] = system: patients with T2DM and chronic kidney disease (CKD) stage G3; experiment: Phase 2a: C-peptide levels; assay type: in vivo, human; details: over 32 days; P<0.001
Protocol: Over 32 days, 21 patients received once-daily subcutaneous cotadutide (n=21) titrated up to 300 μg, and 20 patients received placebo (PBO). […] Serious adverse events (AEs) were balanced between treatment arms; treatment-related AEs were more frequent with cotadutide (71%) vs PBO (35%). The most common AEs were nausea (cotadutide, 33%; PBO, 20%) and vomiting (cotadutide, 24%; PBO, 5%). […] Thus, in patients with T2DM and chronic kidney disease, cotadutide improved overall glycemic control and glucose responses to an MMTT with acceptable tolerability. Improvements in albuminuria indicate that cotadutide can slow long-term progression of CKD.

[3] = subjects with mean UACR > 3 mg/mmol at baseline
[4] = subjects with mean UACR > 3 mg/mmol at baseline, ITT

In the case of `CCCCCCCCCCCCCCCC(=O)N[C@@H](CCC(=O)NCCCC[C@H](NC(=O)[C@H](CC(=O)O)NC(=O)[C@H](CO)NC(=O)[C@@H](NC(=O)[C@H](Cc1ccccc1)NC(=O)[C@@H](NC(=O)CNC(=O)[C@H](CCC(N)=O)NC(=O)[C@H](CO)NC(=O)[C@@H](N)Cc1c[nH]cn1)[C@@H](C)O)[C@@H](C)O)C(=O)N[C@@H](CO)C(=O)N[C@@H](CCC(=O)O)C(=O)N[C@@H](Cc1ccc(O)cc1)C(=O)N[C@@H](CC(C)C)C(=O)N[C@@H](CC(=O)O)C(=O)N[C@@H](CO)C(=O)N[C@@H](CCC(=O)O)C(=O)N[C@@H](CCCNC(=N)N)C(=O)N[C@@H](C)C(=O)N[C@@H](CCCNC(=N)N)C(=O)N[C@@H](CC(=O)O)C(=O)N[C@@H](Cc1ccccc1)C(=O)N[C@H](C(=O)N[C@@H](C)C(=O)N[C@@H](Cc1c[nH]c2ccccc12)C(=O)N[C@@H](CC(C)C)C(=O)N[C@@H](CCC(=O)O)C(=O)N[C@@H](C)C(=O)NCC(=O)NCC(=O)O)C(C)C)C(=O)O` [Cotadutide], the “[^18F]FDG uptake by PET imaging, brown adipose tissue” value (brown adipose tissue) is reported as “confirmed”, the “Urine Albumin/Creatinine, End of Dosing (Day 33), Mean” value ([1]; Total, ITT) is reported as 10.06 mg/mmol and the “Urine Albumin/Creatinine, End of Dosing (Day 33), Median” value ([1]; Total, ITT) is reported as 2.00 mg/mmol. For the same compound, the “UACR LS Mean Change” value ([1]; baseline to Day 33, ANCOVA, Total, ITT) was -3.05 mg/mmol, the “UACR Change from Baseline, Mean” value ([1]; baseline to Day 33, Total, ITT) was -3.05 mg/mmol and the “UACR Change from Baseline, Median” value ([1]; baseline to Day 33, Total, ITT) was -0.60 mg/mmol. For the same compound, the “UACR Difference in LS Mean Change (vs Placebo)” value ([1]; baseline to Day 33, Total, ITT) was -5.07 mg/mmol, the “Fold Change in Log-Transformed UACR (vs. Placebo)” value ([1]; baseline to end of dosing, subjects with mean UACR > 3 mg/mmol at baseline) was −0.70 and the “UACR Geometric Mean (end of dosing relative to baseline)” value [1, 3] was 0.511. The “UACR Geometric Mean Ratio (vs. Placebo)” value [1, 3] was 0.4945, the “UACR Relative Change from Baseline to End of Dosing (vs. Placebo)” value [1] was 50.6% and the “UACR Relative Change from Baseline to End of Dosing (vs. Placebo)” value ([1]; listed as MEDI0382) was 50.55%. The “Log-transformed UACR, End of Dosing (Day 33), Mean” value [1, 4] was 1.767, the “Log-transformed UACR, End of Dosing (Day 33), Median” value [1, 4] was 1.253 and the “C-peptide levels, LS mean change vs PBO” value [2] was 0.88 µg/L.
